Source: US10077273B2, “SHMT inhibitors” (The Trustees of Princeton University, priority 2016, dated 2018)
Like-named read-outs stand apart in the source and are kept apart here. Blank lines part the entries; values can stand above or below the molecule they belong to.

What was measured:
Su-DHL-2 cells = assay: Cellular growth assay, Su-DHL-2; format: cell-based
Procedure: (§1) Jurkat, REH, Farage, Daudi, Su-DHL2, Su-DHL-4, Su-DHL-6 cells were purchased from ATCC. Cells were subcultured in RPMI supplemented with 10% FBS. For growth assays, cells were seeded at 2×10^5/mL in 5 mL growth media in 12.5 cm flasks. Media was supplemented with sodium formate (1 mM), additional glycine (100 mg/L) and an SHMTi (5 uM). Cells were sampled daily, and counted using trypan blue staining and light microscopy.

Jurkat cells = assay: Cellular growth assay, Jurkat; format: cell-based
Procedure: as §1

HCT-116 ΔSHMT2 cells = assay: Cell growth assay, HCT-116 SHMT2 deletion (knock-out) cells; format: cell-based, human; conditions: FIG. 3B; increased potency versus native cells
Procedure: Inhibitors of SHMT were evaluated in various cancer cell lines, in the presence and absence of mutations in mitochondrial folate pathway enzymes.
To analyze the effects of inhibition on each isoform independently, SHMT1 and SHMT2 HCT-116 deletion clones were used.

[1] = system: human colon carcinoma HCT-116 WT cells; assay: Cell growth assay (resazurin), HCT-116 wild-type; format: cell-based; conditions: for IC50: Homo sapiens, HCT-116, Table 2
Procedure: The described cell lines for Examples 8 and 9 are cultured in 96-well plates in Dulbecco's modified eagle media (DMEM) without pyruvate (CELLGRO) with 10% dialysed fetal bovine serum (Invitrogen) in 5% CO2 at 37° C. Approximately 2,500 cells are plated in each well in 90 uL of media. After 24 hours cells are treated with various concentrations of inhibitor (time=0 hours), with or without formate. Growth was assessed at multiple time points (time=0, 24, 48, 72 hours) through measurement of fluorescence at 595 nm (excitation at 535 nm) on a BioTek micro titer plate reader after incubation with resazurin (0.01 mg/mL for 1.5 hours). IC50 curves are generated from percent inhibition of growth at 72 hours. […]

HCT cells = assay: Formate rescue assay in cell growth; format: cell-based, human; conditions: Table 2
Procedure: Application of formate is shown to rescue the anti-growth effect in certain human cells treated with SHMT inhibitors in a cell growth assay.
The described cell lines for Examples 8 and 9 are cultured in 96-well plates in Dulbecco's modified eagle media (DMEM) without pyruvate (CELLGRO) with 10% dialysed fetal bovine serum (Invitrogen) in 5% CO2 at 37° C. Approximately 2,500 cells are plated in each well in 90 uL of media. After 24 hours cells are treated with various concentrations of inhibitor (time=0 hours), with or without formate. Growth was assessed at multiple time points (time=0, 24, 48, 72 hours) through measurement of fluorescence at 595 nm (excitation at 535 nm) on a BioTek micro titer plate reader after incubation with resazurin (0.01 mg/mL for 1.5 hours). IC50 curves are generated from percent inhibition of growth at 72 hours.

[2] = Liver microsome assay (metabolic stability); format: in vitro ADME; conditions: male, CD-1, mouse, pooled liver microsomes
Procedure: The following master solution was prepared before compound addition:
Two separate experiments were performed as follows: a) With Cofactors (NADPH and UDPGA): 40 μL of 10 mM NADPH and 40 μL of 20 mM UDPGA were added to the incubations. The final concentrations of microsomes, NADPH and UDPGA were 0.5 mg/mL, 1 mM and 2 mM, respectively. b) Without Cofactors (NADPH and UDPGA): 10 μL of 20 mg/mL liver microsomes and 80 μL of ultra-pure water were added to the incubations. The final concentration of microsomes was 0.5 mg/mL. The mixture was pre-warmed at 37° C. for 5 minutes.
The reaction was started with the addition of 4 μL of 200 μM control compound or test compound solution. Verapamil was used as positive control in this study. The final concentration of test compound or control compound was 2 μM. The incubation solution was incubated in water bath at 37° C. Aliquots of 50 μL were taken from the reaction solution at 0.5, 5, 15, 30, 45 and 60 minutes. The reaction was stopped by the addition of 5 volumes of cold acetonitrile with IS (100 nM alprazolam, 200 nM caffeine and 100 nM tolbutamide). Samples were centrifuged at 3,220 g for 40 minutes. Aliquot of 100 μL of the supernatant was mixed with 100 μL of ultra-pure H2O and then used for LC-MS/MS analysis. The in vitro half-life (in vitro t1/2) was determined from the slope value of the LC-MS signal of the test compound.

[3] = system: human pancreatic cell line 8988T; assay: Growth of pancreatic cancer cell line 8988T; format: cell-based; conditions: 8988T cells
Su-DHL4 cells [4] = assay: Apoptosis by Annexin V surface staining, flow cytometry; format: cell-based
Text: In contrast, cell growth is further decreased in Su-DHL4 cells by addition of formate. This can be further exacerbated by removal of glycine from the media. […] Using flow cytometry, apoptosis of Su-DHL4 cells were studied with AnnexinV surface staining (FIGS. 12D and 12E).

Su-DHL4 cells [5] = assay: Cellular growth, SU-DHL4; format: cell-based; conditions: SU-DHL4, FIG. 12C legend
Procedure: as §1

LogP value = format: physicochemical; conditions: Table 2; head prints (μM)
human SHMT2 = human SHMT2 (Homo sapiens, UniProt P34897)
Procedure: (§2) For the SHMT1 and SHMT2 in vitro enzymatic assays, the rate of 5,10-methylene tetrahydrofolate formation catalyzed by SHMT1/2 was indirectly evaluated by coupling with excess MTHFD2, which converts NAD+ to NADH allowing for reaction monitoring by absorption at 340 nm. […] Inhibition of initial reaction velocity was determined by adding various inhibitors at different concentrations and monitored as described. IC50 may be calculated based on this assay.

human SHMT1 = human SHMT1 (Homo sapiens, UniProt P34896); conditions: read-out: SHMT1 IC50; Table 3
Procedure: as §2

[6] = replicate 1, read-out: CLint (replicate 1)
[7] = replicate 2, read-out: CLint (replicate 2)

human SHMT2, sequence (P34897 30-504 limits assumed): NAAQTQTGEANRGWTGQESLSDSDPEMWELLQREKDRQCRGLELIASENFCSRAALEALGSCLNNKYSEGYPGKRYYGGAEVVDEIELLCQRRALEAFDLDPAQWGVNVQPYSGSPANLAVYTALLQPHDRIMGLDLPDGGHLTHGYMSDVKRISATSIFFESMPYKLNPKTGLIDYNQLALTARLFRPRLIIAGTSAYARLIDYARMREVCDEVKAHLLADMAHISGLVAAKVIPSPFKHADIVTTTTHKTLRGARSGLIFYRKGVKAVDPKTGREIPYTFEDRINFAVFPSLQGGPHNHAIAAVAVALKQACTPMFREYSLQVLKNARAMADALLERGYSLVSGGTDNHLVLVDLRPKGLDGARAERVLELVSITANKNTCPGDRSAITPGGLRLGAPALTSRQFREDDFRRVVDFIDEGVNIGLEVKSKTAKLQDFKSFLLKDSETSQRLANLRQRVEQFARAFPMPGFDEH
human SHMT1, sequence (P34896 2-483 limits assumed): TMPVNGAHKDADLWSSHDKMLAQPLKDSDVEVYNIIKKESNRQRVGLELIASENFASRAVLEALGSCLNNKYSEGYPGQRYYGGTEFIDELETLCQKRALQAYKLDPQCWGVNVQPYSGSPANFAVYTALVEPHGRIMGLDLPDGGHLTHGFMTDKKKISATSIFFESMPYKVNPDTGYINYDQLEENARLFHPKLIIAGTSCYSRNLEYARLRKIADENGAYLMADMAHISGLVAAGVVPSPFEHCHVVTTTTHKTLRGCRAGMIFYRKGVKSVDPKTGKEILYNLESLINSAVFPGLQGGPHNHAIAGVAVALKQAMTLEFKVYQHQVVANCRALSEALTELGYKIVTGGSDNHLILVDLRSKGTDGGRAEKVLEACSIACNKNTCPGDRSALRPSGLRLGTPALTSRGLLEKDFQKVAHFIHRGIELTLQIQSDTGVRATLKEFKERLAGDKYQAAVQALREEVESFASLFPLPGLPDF

SMILES: Cc1n[nH]c2c1[C@@](c1cc(C(F)(F)F)cc(C(F)(F)F)c1)(C(C)C)C(C#N)=C(N)O2 [HK-16 (PK-2)]
growth as assessed by cell count (Su-DHL-2 cells; Su-DHL-2, 5 μM): inhibited | rescue of growth inhibition by formate (Su-DHL-2 cells; Su-DHL-2, 5 μM + 1 mM formate): not rescued | growth as assessed by cell count (Jurkat cells; 5 μM): inhibited | rescue of growth inhibition by formate (Jurkat cells; 5 μM + 1 mM sodium formate): significantly rescued

SMILES: Cc1n[nH]c2c1C(c1cc(C#CCCCO)cc(C(F)(F)F)c1)(C(C)C)C(C#N)=C(N)O2 (stereo not shown) [Compound 61, 6-amino-4-(3-(5-hydroxypent-1-yn-1-yl)-5-(trifluoromethyl)phenyl)-4-isopropyl-3-methyl-1,4-dihydropyrano[2,3-c]pyrazole-5-carbonitrile]
growth of SHMT2 knock-out HCT116 cells (HCT-116 ΔSHMT2 cells): inhibited growth | growth (proliferation) of HCT116 cells ([1]; native HCT116, FIG. 3A): inhibited growth

SMILES: Cc1n[nH]c2c1C(c1cc(C#CCCC(N)=O)cc(C(F)(F)F)c1)(C(C)C)C(C#N)=C(N)O2 (stereo not shown) [Compound 11]
% formate rescue (HCT cells): 96.98% | microsomal CLint at 2 μM [2, 6]: 764 µL/min/mg | microsomal CLint at 2 μM [2, 7]: 541 µL/min/mg | IC50 [1]: 5.98 µM

SMILES: Cc1n[nH]c2c1C(c1cc(C#CCCC(=O)N[C@@H](CCC(=O)O)C(=O)O)cc(C(F)(F)F)c1)(C(C)C)C(C#N)=C(N)O2 (stereo partly shown) [Compound 69]
% formate rescue (HCT cells): 96.41% | IC50 [1]: 100 µM

SMILES: Cc1n[nH]c2c1C(c1cc(C#N)cc(C#CCCC(=O)O)c1)(C(C)C)C(C#N)=C(N)O2 (stereo not shown) [Compound 68]
% formate rescue (HCT cells): 106.02% | IC50 [1]: 100 µM

microsomal CLint at 2 μM [2, 6]: 87.8 µL/min/mg | microsomal CLint at 2 μM [2, 7]: 71.5 µL/min/mg
SMILES: Cc1n[nH]c2c1C(c1cc(Br)cc(C(F)(F)F)c1)(C(F)(F)F)C(C#N)=C(N)O2 (stereo not shown)

microsomal CLint at 2 μM [2, 6]: 68 µL/min/mg | microsomal CLint at 2 μM [2, 7]: 68 µL/min/mg
SMILES: Cc1n[nH]c2c1C(c1cc(C#CCCCO)cc(CO)c1)(C(C)C)C(C#N)=C(N)O2 (stereo not shown) [Compound 74]

SMILES: Cc1n[nH]c2c1C(c1cc(CO)cc(-c3ccccc3)c1)(C(C)C)C(C#N)=C(N)O2 (stereo not shown) [HK-X2]
concentrations that impair cell growth [3]: < 100 nM | apoptotic fraction of cells (Su-DHL4 cells [4]; inhibitor alone, untreated 2%): 8% | apoptotic fraction of cells (Su-DHL4 cells [4]; inhibitor in the presence of formate): 15% | IC80 (Jurkat cells; FIG. 12C legend): 2.5 µM | IC70 (Su-DHL4 cells [5]): 5 µM

SMILES: Cc1n[nH]c2c1C(c1cc(C#CCCC(=O)N[C@H](CCC(=O)O)C(=O)O)cc(C(F)(F)F)c1)(C(C)C)C(C#N)=C(N)O2 (stereo partly shown) [Compound 70]
% formate rescue (HCT cells): 94.89% | IC50 [1]: 100 µM | logP (LogP value): 2.49

microsomal CLint at 2 μM [2, 6]: 285 µL/min/mg | microsomal CLint at 2 μM [2, 7]: 203 µL/min/mg | IC50 [1]: 4.96 µM
SMILES: Cc1n[nH]c2c1C(c1cc(C#N)cc(C#CCCCO)c1)(C(C)C)C(C#N)=C(N)O2 (stereo not shown) [Compound 71]
% formate rescue (HCT cells): 97.81%

SMILES: Cc1n[nH]c2c1C(c1cc(C#CCCCN)cc(C(F)(F)F)c1)(C(C)C)C(C#N)=C(N)O2 (stereo not shown) [Compound 8]
% formate rescue (HCT cells): 80.65% | IC50 [1]: 2.04 µM

SMILES: Cc1n[nH]c2c1C(c1cc(C#CCCC(=O)O)cc(C(F)(F)F)c1)(C(C)C)C(C#N)=C(N)O2 (stereo not shown) [Compound 4]
% formate rescue (HCT cells): 93.35% | IC50 (human SHMT2; read-out: SCHMT2 IC50, Table 2): 0.00017 µM | IC50 [1]: 15.1 µM

IC50 (human SHMT2; read-out: SHMT2 IC50, Table 3): > 5 µM
SMILES: Cc1n[nH]c2c1C(C)(c1cccc([N+](=O)[O-])c1)C(C#N)=C(N)O2 (stereo not shown) [GD-07]

IC50 (human SHMT1): > 5 µM | IC50 (human SHMT2; read-out: SHMT2 IC50, Table 3): > 5 µM
SMILES: COc1cccc(C2(C3CCC3)C(C#N)=C(N)Oc3[nH]nc(C)c32)c1 (stereo not shown) [HK-2]

IC50 [1]: 6.9 µM | logP (LogP value): 3.46
SMILES: Cc1n[nH]c2c1C(c1cc(C#CCCO)cc(C(F)(F)F)c1)(C(C)C)C(C#N)=C(N)O2 (stereo not shown) [Compound 2]
% formate rescue (HCT cells): 100.58%

SMILES: Cc1n[nH]c2c1C(c1cc(C#CCCC(=O)NC(C)(C)C(=O)O)cc(C(F)(F)F)c1)(C(C)C)C(C#N)=C(N)O2 (stereo not shown) [Compound 72]
% formate rescue (HCT cells): 98.35% | IC50 [1]: 200 µM | logP (LogP value): 3.38

IC50 [1]: 11.1 µM | logP (LogP value): 4.17
SMILES: COC(=O)CCC#Cc1cc(C(F)(F)F)cc(C2(C(C)C)C(C#N)=C(N)Oc3[nH]nc(C)c32)c1 (stereo not shown) [Compound 73]
% formate rescue (HCT cells): 97.33%

microsomal CLint at 2 μM [2, 6]: 597 µL/min/mg | microsomal CLint at 2 μM [2, 7]: 776 µL/min/mg | logP (LogP value): 3.91
SMILES: Cc1n[nH]c2c1C(c1cc(C#CCCCO)cc(C(F)(F)F)c1)(C(C)C)C(C#N)=C(N)O2 (stereo not shown) [Compound 1]

IC50 [1]: 1.36 µM
SMILES: Cc1n[nH]c2c1C(c1cc(C#CCCCO)cc(C(F)(F)F)c1)(C(C)C)C(C#N)=C(N)O2 (stereo not drawn) [1 (enantiomeric ally active peak)]
% formate rescue (HCT cells): 94.96%
